Experimental data from ChEMBL document CHEMBL4390668, “Discovery and Structural Optimization of Acridones as Broad-Spectrum Antimalarials” (J Med Chem, 2019).
Calls of active or inactive are those of the source. The calls are words filed in the database; no cut-off is given here.

How the values were obtained:
Plasmodium falciparum [1] = test: Antimalarial activity against multidrug-resistant Plasmodium falciparum Dd2 infected in human erythrocytes by SYBR green 1-based fluorescence assay; assay type: functional, organism-based
[2] = Mutagenicity in Salmonella typhimurium TA100 assessed as increase in revertant colonies up to 10 uM in absence of S9 fraction by Ames test; assay type: toxicity; details: salmonella enterica subsp. enterica serovar typhimurium
[3] = Tmax in ICR mouse liver at 80 mg/kg, po administered as single dose; assay type: ADME, organism-based
[4] = Apparent volume of distribution in ICR mouse plasma at 80 mg/kg, po administered as single dose; assay type: ADME, organism-based; details: in vivo
Plasmodium falciparum [5] = test: Antimalarial activity against drug-resistant Plasmodium falciparum Dd2 harboring V259L mutant infected in human erythrocytes after 72 hrs by SYBR green 1-based fluorescence assay; assay type: functional, organism-based; details: Dd2, 72 h
Plasmodium berghei [6] = test: (§1) Antimalarial activity against liver stage luciferase-expressing Plasmodium berghei ANKA 676m1cl1 sporozoites infected in C57BL/6 mouse assessed as suppression of parasitemia at 10 mg/kg, po pretreated for 1 day followed by parasite infection and subsequent compound dosing for 2 days measured at 24 to 48 hrs post-infection by luciferin-based real-time imaging analysis; assay type: functional
[7] = Mean residence time in ICR mouse liver at 80 mg/kg, po administered as single dose; assay type: ADME, organism-based
Plasmodium falciparum [8] = test: Antimalarial activity against Plasmodium falciparum 3D7 infected in human erythrocytes after 72 hrs by SYBR green 1-based fluorescence assay; assay type: functional, organism-based; details: 3D7, 72 h
[9] = Mutagenicity in Salmonella typhimurium TA98 assessed as increase in revertant colonies up to 10 uM in presence of S9 fraction by Ames test; assay type: toxicity, subcellular; details: salmonella enterica subsp. enterica serovar typhimurium
Plasmodium falciparum [10] = test: Antimalarial activity against atovaquone-resistant Plasmodium falciparum Tm90-C2B infected in human erythrocytes by SYBR green 1-based fluorescence assay; assay type: functional, organism-based
[11] = Tmax in ICR mouse plasma at 80 mg/kg, po administered as single dose; assay type: ADME, organism-based
[12] = AUC (0 to last) in ICR mouse liver at 80 mg/kg, po administered as single dose; assay type: ADME, organism-based; set-up: dose 80 mg/kg, route oral, time 0 - last
[13] = AUC (0 to last) in ICR mouse plasma at 80 mg/kg, po administered as single dose; assay type: ADME, organism-based; set-up: dose 80 mg/kg, route oral, time 0 - last
[14] = Mutagenicity in Salmonella typhimurium TA98 assessed as increase in revertant colonies up to 10 uM in absence of S9 fraction by Ames test; assay type: toxicity; details: salmonella enterica subsp. enterica serovar typhimurium
Plasmodium berghei [15] = test: Antimalarial activity against luciferase-expressing Plasmodium berghei ANKA 676m1cl1 sporozoites infected in human HepG2A16 cells measured after 45 hrs by luciferase-luciferin based reporter assay; assay type: functional, organism-based; details: ANKA 676m1cl1, HepG2A16, 45 h
[16] = Half life in human liver microsomes at 1 uM by LC-MS analysis; assay type: ADME, Microsome
Plasmodium falciparum [17] = test: Inhibition of Plasmodium falciparum cytochrome b-c1
[18] = Cmax in ICR mouse plasma at 80 mg/kg, po administered as single dose; assay type: ADME, organism-based; set-up: dose 80 mg/kg, route oral
[19] = Mean residence time in ICR mouse plasma at 80 mg/kg, po administered as single dose; assay type: ADME, organism-based
[20] = Cmax in ICR mouse liver at 80 mg/kg, po administered as single dose; assay type: ADME, organism-based; set-up: dose 80 mg/kg, route oral
Plasmodium falciparum [21] = test: Antimalarial activity against drug-resistant Plasmodium falciparum 3D7 harboring A82T/V259L double mutant infected in human erythrocytes after 72 hrs by SYBR green 1-based fluorescence assay; assay type: functional, organism-based; details: 3D7, 72 h
[22] = AUC (0 to infinity) in ICR mouse plasma at 80 mg/kg, po administered as single dose; assay type: ADME, organism-based; set-up: dose 80 mg/kg, route oral, time infinity; details: for AUC(0-inf): ICR, plasma
Plasmodium berghei [23] = test: as §1, with “blood” for “liver”, “up” for “at 24”, “30 days” for “48 hrs”, “YOYO1 staining based flow cytometry” for “luciferin-based real-time imaging analysis”; assay type: functional
[24] = Toxicity in CF1 mouse infected with blood stage Plasmodium yoelii MR4 MRA-428 assessed as behavioral changes at 80 mg/kg, po administered once daily via gavage for 4 days starting from for 4 days starting from 24 hrs post-infection and measured daily during compound dosing; assay type: organism-based; details: in vivo
hERG (KCNH2) = hERG (KCNH2) (Homo sapiens, UniProt Q12809); test: Inhibition of human ERG expressed in CHOK1 cells at 10 uM by automated patch clamp method relative to control; assay type: cell-based; details: CHO-K1 cells that express hERG
[25] = Half life in mouse liver microsomes at 1 uM by LC-MS analysis; assay type: ADME, Microsome
HepG2 = test: Cytotoxicity against human HepG2 cells measured after 24 to 36 hrs by resazurin dye based fluorescence assay; assay type: cell-based
[26] = Toxicity in CF1 mouse infected with blood stage Plasmodium yoelii MR4 MRA-428 assessed as clinical toxicity at 80 mg/kg, po administered once daily via gavage for 4 days starting from for 4 days starting from 24 hrs post-infection and measured daily during compound dosing; assay type: organism-based; details: in vivo
Plasmodium falciparum [27] = test: Antimalarial activity against drug-resistant Plasmodium falciparum Dd2 harboring M133I/A138T double mutant infected in human erythrocytes after 72 hrs by SYBR green 1-based fluorescence assay; assay type: functional, organism-based; details: Dd2, 72 h
[28] = AUC (0 to infinity) in ICR mouse liver at 80 mg/kg, po administered as single dose; assay type: ADME, organism-based; set-up: dose 80 mg/kg, route oral, time infinity
[29] = Apparent elimination half life in ICR mouse plasma at 80 mg/kg, po administered as single dose; assay type: ADME, organism-based; details: for half-life: ICR, plasma, read-out: betat1/2(app) (converted)
Plasmodium yoelii [30] = test: (§2) Antimalarial activity against blood stage Plasmodium yoelii MR4 MRA-428 infected in CF1 mouse assessed as suppression of parasitemia administered once daily via oral gavage for 4 days starting from 24 hrs post-infection and measured post-last dose by Giemsa-staining based microscopic analysis; assay type: functional
[31] = Mutagenicity in Salmonella typhimurium TA100 assessed as increase in revertant colonies up to 10 uM in presence of S9 fraction by Ames test; assay type: toxicity, subcellular; details: salmonella enterica subsp. enterica serovar typhimurium
[32] = Apparent elimination half life in ICR mouse liver at 80 mg/kg, po administered as single dose; assay type: ADME, organism-based; details: read-out: betat1/2(app) (converted)
Plasmodium falciparum [33] = test: Antimalarial activity against multidrug-resistant Plasmodium falciparum 7G8 infected in human erythrocytes by SYBR green 1-based fluorescence assay; assay type: functional, organism-based
Plasmodium falciparum [34] = test: Antimalarial activity against chloroquine-sensitive Plasmodium falciparum D6 infected in human erythrocytes by SYBR green 1-based fluorescence assay; assay type: functional, organism-based
[35] = Selectivity index, ratio of IC50 for human HepG2 cells to IC50 for chloroquine-sensitive Plasmodium falciparum D6 infected in human erythrocytes; assay type: toxicity, cell-based; details: read-out: Ratio IC50
Plasmodium yoelii [36] = test: as §2, with “parasitemia at 80 mg/kg, po” for “parasitemia”, “via” for “via oral”, “at weekly intervals for 28 days” for “post-last dose”; assay type: functional
[37] = Apparent clearance in ICR mouse plasma at 80 mg/kg, po administered as single dose; assay type: ADME, organism-based; details: read-out: CL(app) (converted)
Plasmodium berghei [38] = test: as §1, with “blood” for “liver”, “4” for “10”, “up” for “at 24”, “30 days” for “48 hrs”, “YOYO1 staining based flow cytometry” for “luciferin-based real-time imaging analysis”; assay type: functional
[39] = Apparent volume of distribution in ICR mouse liver at 80 mg/kg, po administered as single dose; assay type: ADME, organism-based; details: in vivo
Plasmodium falciparum [40] = test: Antimalarial activity against drug-resistant Plasmodium falciparum Dd2 harboring M133I mutant infected in human erythrocytes after 72 hrs by SYBR green 1-based fluorescence assay; assay type: functional, organism-based; details: Dd2, 72 h

hERG (KCNH2), sequence (Q12809 whole entry): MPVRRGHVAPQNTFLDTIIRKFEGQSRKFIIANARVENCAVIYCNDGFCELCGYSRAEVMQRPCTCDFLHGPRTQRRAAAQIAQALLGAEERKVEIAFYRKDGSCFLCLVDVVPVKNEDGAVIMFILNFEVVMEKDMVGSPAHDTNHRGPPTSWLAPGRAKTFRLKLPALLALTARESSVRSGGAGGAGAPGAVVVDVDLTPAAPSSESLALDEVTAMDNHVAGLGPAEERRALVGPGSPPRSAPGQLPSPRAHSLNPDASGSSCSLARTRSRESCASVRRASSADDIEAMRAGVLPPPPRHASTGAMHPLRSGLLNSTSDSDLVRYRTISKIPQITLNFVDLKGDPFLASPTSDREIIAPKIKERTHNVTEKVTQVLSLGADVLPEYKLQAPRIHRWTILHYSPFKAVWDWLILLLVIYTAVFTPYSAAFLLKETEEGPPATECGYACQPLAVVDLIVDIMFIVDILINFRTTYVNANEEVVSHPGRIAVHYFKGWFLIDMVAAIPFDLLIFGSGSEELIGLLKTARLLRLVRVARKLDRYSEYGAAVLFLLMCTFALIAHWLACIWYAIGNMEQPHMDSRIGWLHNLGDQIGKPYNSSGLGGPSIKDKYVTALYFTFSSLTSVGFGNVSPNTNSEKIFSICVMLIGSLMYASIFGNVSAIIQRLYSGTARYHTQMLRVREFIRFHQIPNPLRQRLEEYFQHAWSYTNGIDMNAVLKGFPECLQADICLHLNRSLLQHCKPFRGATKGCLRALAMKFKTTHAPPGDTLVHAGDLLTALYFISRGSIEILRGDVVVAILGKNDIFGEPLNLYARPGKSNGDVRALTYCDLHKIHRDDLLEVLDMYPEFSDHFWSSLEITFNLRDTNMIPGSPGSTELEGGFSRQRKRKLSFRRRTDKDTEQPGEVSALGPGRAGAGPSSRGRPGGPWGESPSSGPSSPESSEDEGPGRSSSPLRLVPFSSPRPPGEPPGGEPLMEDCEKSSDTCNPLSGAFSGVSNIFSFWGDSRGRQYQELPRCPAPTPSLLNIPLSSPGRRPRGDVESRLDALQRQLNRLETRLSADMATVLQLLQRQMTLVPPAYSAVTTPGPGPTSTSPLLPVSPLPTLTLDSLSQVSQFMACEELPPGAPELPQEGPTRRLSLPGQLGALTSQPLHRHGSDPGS

| Structure (SMILES) | IC50 (Plasmodium falciparum [1]) [nM] | Activity [2] | Tmax [3] [h] | Vz [4] [L/kg] | IC50 (Plasmodium falciparum [5]) [nM] | Activity (Plasmodium berghei [6]) [%] | MRT [7] [h] | Activity [9] | IC50 (Plasmodium falciparum [10]) [nM] | AUC(0-t) [12] [ng·h/mL] | AUC(0-t) [13] [ng·h/mL] | Activity [14] | IC50 (Plasmodium berghei [15]) [nM] | half-life at 1 µM [16] [h] | inhibition (Plasmodium falciparum [17]) | MRT [19] [h] | Cmax [20] [ng/mL] | IC50 (Plasmodium falciparum [21]) [nM] | Activity (Plasmodium berghei [23]) [%] | IC50 (Plasmodium falciparum [27]) [nM] | also measured |
| --- | --- | --- | --- | --- | --- | --- | --- | --- | --- | --- | --- | --- | --- | --- | --- | --- | --- | --- | --- | --- | --- |
| CCCN(CCC)CCOc1ccc2c(=O)c3c(F)cc(F)cc3[nH]c2c1 | 0.0003 to 0.23 | Non-Toxic | 7 | 657.604 | 5.5 | 100 | 8.9 | Non-Toxic | 6.8 | 63900 | 7560 | Non-Toxic | 1.4 | 0.267 | inactive | 10.2 | 3930 | 17 | 100 | 0.86 | IC50 (Plasmodium falciparum [8]): 0.3 nM; Tmax ([11]; in vivo): 7 h; Cmax ([18]; in vivo): 99 ng/mL; AUC ([22]; in vivo): 56485 ng·h/mL; Activity [24]: Non-Toxic; inhibition at 10 µM (hERG (KCNH2)): 65%; half-life at 1 µM [25]: 0.25 h; IC50 (HepG2): 42800 nM; Activity [26]: Non-Toxic; AUC(0-inf) [28]: 102000 ng·h/mL; betat1/2(app) ([29]; in vivo): 54.24 h; ED50 (Plasmodium yoelii [30]): 1.12 mg/kg.day; Activity [31]: Non-Toxic; half-life [32]: 13.8 h; IC50 (Plasmodium falciparum [33]): 0.0003 nM; IC50 (Plasmodium falciparum [34]): 0.0003 nM; selectivity ratio [35]: > 100000; Activity (Plasmodium yoelii [36]): 100% |
| CCCN(CCC)CCOc1ccc2c(=O)c3c(Cl)c(Cl)ccc3[nH]c2c1 | 0.05 to 9 | Non-Toxic | 7 | 58.684 | 216 | 100 | 6.07 | Non-Toxic | 142 | 547000 | 3840 | Non-Toxic | 1.1 | 0.183 | inactive | 4.69 | 42300 | 79 | 100 | 50 | Tmax ([11]; ICR, plasma, read-out: Tmax): 5.5 h; Cmax ([18]; ICR, plasma, read-out: Cmax): 631 ng/mL; AUC(0-inf) [22]: 4520 ng·h/mL; Activity [24]: Non-Toxic; inhibition at 10 µM (hERG (KCNH2)): 25%; half-life at 1 µM [25]: 0.283 h; IC50 (HepG2): 41600 nM; Activity [26]: Non-Toxic; AUC(0-inf) [28]: 547000 ng·h/mL; half-life [29]: 2.29 h; ED50 (Plasmodium yoelii [30]): 1.04 mg/kg.day; ED90 (Plasmodium yoelii [30]): 1.14 mg/kg.day; Activity [31]: Non-Toxic; half-life [32]: 1.84 h; IC50 (Plasmodium falciparum [33]): 0.3 nM; IC50 (Plasmodium falciparum [34]): 0.17 nM; selectivity ratio [35]: 245000; Activity (Plasmodium yoelii [36]): 100%; CL/F [37]: 295 mL/min/kg |
| CCCCN(CCCC)CCOc1ccc2c(=O)c3c(Cl)c(Cl)ccc3[nH]c2c1 | 0.041 to 14 | Non-Toxic | 2.75 | 223.865 | 140 | 100 | 10.1 | Non-Toxic | 228 | 168000 | 3050 | Non-Toxic | 0.5 | 0.2 | inactive | 6.96 | 21300 | 57 | 100 | 38 | Activity (Plasmodium berghei [38]): 100%; Tmax ([11]; ICR, plasma, read-out: Tmax): 2.75 h; Cmax ([18]; ICR, plasma, read-out: Cmax): 226 ng/mL; AUC(0-inf) [22]: 3240 ng·h/mL; Activity [24]: Non-Toxic; inhibition at 10 µM (hERG (KCNH2)): 57%; half-life at 1 µM [25]: 0.35 h; Activity [26]: Non-Toxic; AUC(0-inf) [28]: 169000 ng·h/mL; half-life [29]: 6 h; ED50 (Plasmodium yoelii [30]): 1.03 mg/kg.day; ED90 (Plasmodium yoelii [30]): 1.64 mg/kg.day; Activity [31]: Non-Toxic; Vz [39]: 3.605 L/kg; half-life [32]: 4.63 h; IC50 (Plasmodium falciparum [33]): 0.043 nM; Activity (Plasmodium yoelii [36]): 100%; CL/F [37]: 431 mL/min/kg |
| CCCCN(CCCC)CC(O)c1cc(Cl)cc2c1-c1ccc(Cl)cc1/C2=C/c1ccc(Cl)cc1 (configuration not stated) [LUMEFANTRINE] | 5.7 | – | – | – | 6.5 | – | – | – | – | – | – | – | – | – | inactive | – | – | 4.5 | – | 3.6 | IC50 (Plasmodium falciparum [40]): 3.6 nM; IC50 (Plasmodium falciparum [8]): 3 nM |
